Consider 22 compounds from patent publication US8129398B2 (priority 2008, dated 2012).

Some results are limits rather than exact numbers.

For this assay, the target named is T1, HIV-integrase (Human immunodeficiency virus type 1 group M subtype B, UniProt P12497).
T1 construct: Recombinant integrase (0.26 ng) was incubated with the beads
The assay can be described thus: HIV-Integrase Inhibition Activity (SPA bead integration assay with P33 labeled target DNA). The assay is classed as biochemical. To be noted: recombinant integrase, class symbols; read-out: in vitro activity. A digest of the protocol: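 Strand integration read as bead-proximity CPM after P33 target DNA (0.1 fmol) and inhibitor were added to washed integrase–substrate DNA complexes on SPA beads. Enzyme bound 90 min at 37° C; EDTA (10 mM final) terminated reaction; IC50 graded A/B/C.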
In the case of `O=C(NC12CCC(CC1)Cn1c2nc(C(=O)NCc2ccc(F)cc2)c(O)c1=O)OCCO` [Example 260, Carbamic acid, [2-[[[(4-fluorophenyl)methyl]amino]carbonyl]-6,7,8,9-tetrahydro-3-hydroxy-4-oxo-7,10-ethanopyrimido[1,2-a]azepin-10(4H)-yl]-, 2-hydroxyethyl ester], the IC50 is less than 0.01 µM.

Take `CC(C)(O)C(=O)NC12CCC(CC1)Cn1c2nc(C(=O)NCc2ccc(F)cc2)c(O)c1=O` [Example 261, 7,10-Ethanopyrimido[1,2-a]azepine-2-carboxamide, N-[(4-fluorophenyl)methyl]-4,6,7,8,9,10-hexahydro-3-hydroxy-10-[(2-hydroxy-2-methyl-1-oxopropyl)amino]-4-oxo-]: the IC50 was less than 0.01 µM.

For `CC(=O)N1CCC[C@H]1C(=O)NC12CCC(CC1)Cn1c2nc(C(=O)NCc2ccc(F)c(C)c2)c(O)c1=O` [Example 262, 7,10-Ethanopyrimido[1,2-a]azepine-2-carboxamide, 10-[[[(2S)-1-acetyl-2-pyrrolidinyl]carbonyl]amino]-N-[(4-fluoro-3-methylphenyl)methyl]-4,6,7,8,9,10-hexahydro-3-hydroxy-4-oxo-], the IC50 was less than 0.01 µM.

Turning to `Cc1cc(CNC(=O)c2nc3n(c(=O)c2O)CC2CCC3(NC(=O)[C@@H]3CCCN3S(C)(=O)=O)CC2)ccc1F` [Example 263, 7,10-Ethanopyrimido[1,2-a]azepine-2-carboxamide, N-[(4-fluoro-3-methylphenyl)methyl]-4,6,7,8,9,10-hexahydro-3-hydroxy-10-[[[(2S)-1-(methylsulfonyl)-2-pyrrolidinyl]carbonyl]amino]-4-oxo-], the IC50 was less than 0.01 µM.

`O=C1C[C@@H](C(=O)NC23CCC(CC2)Cn2c3nc(C(=O)NCc3ccc(F)cc3)c(O)c2=O)N1` [Example 264, 7,10-Ethanopyrimido[1,2-a]azepine-2-carboxamide, N-[(4-fluorophenyl)methyl]-4,6,7,8,9,10-hexahydro-3-hydroxy-4-oxo-10-[[[(2S)-4-oxo-2-azetidinyl]carbonyl]amino]-]: the IC50 is less than 0.01 µM.

On to `CC(=O)N1CCCC[C@H]1C(=O)NC12CCC(CC1)Cn1c2nc(C(=O)NCc2ccc(F)cc2)c(O)c1=O` [Example 265, 7,10-Ethanopyrimido[1,2-a]azepine-2-carboxamide, 10-[[[(2S)-1-acetyl-2-piperidinyl]carbonyl]amino]-N-[(4-fluorophenyl)methyl]-4,6,7,8,9,10-hexahydro-3-hydroxy-4-oxo-], for which the IC50 is less than 0.01 µM.

For `CS(=O)(=O)N1CCCC[C@H]1C(=O)NC12CCC(CC1)Cn1c2nc(C(=O)NCc2ccc(F)cc2)c(O)c1=O` [Example 266, 7,10-Ethanopyrimido[1,2-a]azepine-2-carboxamide, N-[(4-fluorophenyl)methyl]-4,6,7,8,9,10-hexahydro-3-hydroxy-10-[[[(2S)-1-(methylsulfonyl)-2-piperidinyl]carbonyl]amino]-4-oxo-], the IC50 was less than 0.01 µM.

`CC(=O)N1CC[C@H]1C(=O)NC12CCC(CC1)Cn1c2nc(C(=O)NCc2ccc(F)cc2)c(O)c1=O` [Example 267, 7,10-Ethanopyrimido[1,2-a]azepine-2-carboxamide, 10-[[[(2S)-1-acetyl-2-azetidinyl]carbonyl]amino]-N-[(4-fluorophenyl)methyl]-4,6,7,8,9,10-hexahydro-3-hydroxy-4-oxo-]: the IC50 is less than 0.01 µM.

In the case of `CS(=O)(=O)N1CC[C@H]1C(=O)NC12CCC(CC1)Cn1c2nc(C(=O)NCc2ccc(F)cc2)c(O)c1=O` [Example 268, 7,10-Ethanopyrimido[1,2-a]azepine-2-carboxamide, N-[(4-fluorophenyl)methyl]-4,6,7,8,9,10-hexahydro-3-hydroxy-10-[[[(2S)-1-(methylsulfonyl)-2-azetidinyl]carbonyl]amino]-4-oxo-], the IC50 was less than 0.01 µM.

For `CN(C)C(=O)C(=O)N1CCC[C@H]1C(=O)NC12CCC(CC1)Cn1c2nc(C(=O)NCc2ccc(F)cc2)c(O)c1=O` [Example 269, 7,10-Ethanopyrimido[1,2-a]azepine-2-carboxamide, 10-[[[(2S)-1-[2-(dimethylamino)-1,2-dioxoethyl]-2-pyrrolidinyl]carbonyl]amino]-N-[(4-fluorophenyl)methyl]-4,6,7,8,9,10-hexahydro-3-hydroxy-4-oxo-], the IC50 is less than 0.01 µM.

Consider `CC(=O)N1[C@@H]2C[C@@H]2C[C@H]1C(=O)NC12CCC(CC1)Cn1c2nc(C(=O)NCc2ccc(F)cc2)c(O)c1=O` [Example 270, 7,10-Ethanopyrimido[1,2-a]azepine-2-carboxamide, 10-[[[(1R,3S,5R)-2-acetyl-2-azabicyclo[3.1.0]hex-3-yl]carbonyl]amino]-N-[(4-fluorophenyl)methyl]-4,6,7,8,9,10-hexahydro-3-hydroxy-4-oxo-], for which the IC50 is less than 0.01 µM.

Consider `CO[C@H]1C[C@@H](C(=O)NC23CCC(CC2)Cn2c3nc(C(=O)NCc3ccc(F)cc3)c(O)c2=O)N(C(C)=O)C1` [Example 271, 7,10-Ethanopyrimido[1,2-a]azepine-2-carboxamide, 10-[[[(2S,4S)-1-acetyl-4-methoxy-2-pyrrolidinyl]carbonyl]amino]-N-[(4-fluorophenyl)methyl]-4,6,7,8,9,10-hexahydro-3-hydroxy-4-oxo-], for which the IC50 was less than 0.01 µM.

For the compound `CO[C@H]1C[C@@H](C(=O)NC23CCC(CC2)Cn2c3nc(C(=O)NCc3ccc(F)cc3)c(O)c2=O)N(S(C)(=O)=O)C1` [Example 272, 7,10-Ethanopyrimido[1,2-a]azepine-2-carboxamide, N-[(4-fluorophenyl)methyl]-4,6,7,8,9,10-hexahydro-3-hydroxy-10-[[[(2S,4S)-4-methoxy-1-(methylsulfonyl)-2-pyrrolidinyl]carbonyl]amino]-4-oxo-], the IC50 is less than 0.01 µM.

In the case of `CO[C@@H]1C[C@@H](C(=O)NC23CCC(CC2)Cn2c3nc(C(=O)NCc3ccc(F)cc3)c(O)c2=O)N(C(C)=O)C1` [Example 273, 7,10-Ethanopyrimido[1,2-a]azepine-2-carboxamide, 10-[[[(2S,4R)-1-acetyl-4-methoxy-2-pyrrolidinyl]carbonyl]amino]-N-[(4-fluorophenyl)methyl]-4,6,7,8,9,10-hexahydro-3-hydroxy-4-oxo-], the IC50 is less than 0.01 µM.

As to `CO[C@@H]1C[C@@H](C(=O)NC23CCC(CC2)Cn2c3nc(C(=O)NCc3ccc(F)cc3)c(O)c2=O)N(S(C)(=O)=O)C1` [Example 274, 7,10-Ethanopyrimido[1,2-a]azepine-2-carboxamide, N-[(4-fluorophenyl)methyl]-4,6,7,8,9,10-hexahydro-3-hydroxy-10-[[[(2S,4R)-4-methoxy-1-(methylsulfonyl)-2-pyrrolidinyl]carbonyl]amino]-4-oxo-], the IC50 is less than 0.01 µM.

Turning to `Cc1cc(CNC(=O)c2nc3n(c(=O)c2O)CC2CCC3(NC(=O)[C@@H]3CCN3S(C)(=O)=O)CC2)ccc1F` [Example 276, 7,10-Ethanopyrimido[1,2-a]azepine-2-carboxamide, N-[(4-fluoro-3-methylphenyl)methyl]-4,6,7,8,9,10-hexahydro-3-hydroxy-10-[[[(2S)-1-(methylsulfonyl)-2-azetidinyl]carbonyl]amino]-4-oxo-], the IC50 was less than 0.01 µM.

Regarding `C=C[C@@H]1C[C@]1(NC(C)=O)C(=O)NC12CCC(CC1)Cn1c2nc(C(=O)NCc2ccc(F)cc2)c(O)c1=O` [Example 277, 7,10-Ethanopyrimido[1,2-a]azepine-2-carboxamide, 10-[[[(1R,2S)-1-(acetylamino)-2-ethenylcyclopropyl]carbonyl]amino]-N-[(4-fluorophenyl)methyl]-4,6,7,8,9,10-hexahydro-3-hydroxy-4-oxo-], the IC50 was 0.01 to 0.1 µM.

For `C=C[C@@H]1C[C@]1(NS(C)(=O)=O)C(=O)NC12CCC(CC1)Cn1c2nc(C(=O)NCc2ccc(F)cc2)c(O)c1=O` [Example 278, 7,10-Ethanopyrimido[1,2-a]azepine-2-carboxamide, 10-[[[(1R,2S)-2-ethenyl-1-[(methylsulfonyl)amino]cyclopropyl]carbonyl]amino]-N-[(4-fluorophenyl)methyl]-4,6,7,8,9,10-hexahydro-3-hydroxy-4-oxo-], the IC50 was less than 0.01 µM.

Consider `CO[C@H]1C[C@@H](C(=O)NC23CCC(CC2)Cn2c3nc(C(=O)NCc3ccc(F)c(C)c3)c(O)c2=O)N(C(=O)c2cccn2C)C1` [Example 279, 7,10-Ethanopyrimido[1,2-a]azepine-2-carboxamide, N-[(4-fluoro-3-methylphenyl)methyl]-4,6,7,8,9,10-hexahydro-3-hydroxy-10-[[[(2S,4S)-4-methoxy-1-[(1-methyl-1H-pyrrol-2-yl)carbonyl]-2-pyrrolidinyl]carbonyl]amino]-4-oxo-], for which the IC50 was less than 0.01 µM.

Turning to `CO[C@H]1C[C@@H](C(=O)NC23CCC(CC2)Cn2c3nc(C(=O)NCc3ccc(F)c(C)c3)c(O)c2=O)N(C(=O)c2ccno2)C1` [Example 280, 7,10-Ethanopyrimido[1,2-a]azepine-2-carboxamide, N-[(4-fluoro-3-methylphenyl)methyl]-4,6,7,8,9,10-hexahydro-3-hydroxy-10-[[[(2S,4S)-1-(5-isoxazolylcarbonyl)-4-methoxy-2-pyrrolidinyl]carbonyl]amino]-4-oxo-], the IC50 is less than 0.01 µM.

Turning to `Cc1cc(CNC(=O)c2nc3n(c(=O)c2O)CC2CCC3(NC(=O)C(C)(C)n3cccn3)CC2)ccc1F` [Example 281, 7,10-Ethanopyrimido[1,2-a]azepine-2-carboxamide, N-[(4-fluoro-3-methylphenyl)methyl]-4,6,7,8,9,10-hexahydro-3-hydroxy-10-[[2-methyl-1-oxo-2-(1H-pyrazol-1-yl)propyl]amino]-4-oxo-], the IC50 was less than 0.01 µM.

As to `CC(=O)N1CC[C@H](C(=O)NC23CCC(CC2)Cn2c3nc(C(=O)NCc3ccc(F)c(C)c3)c(O)c2=O)C1` [Example 282, 7,10-Ethanopyrimido[1,2-a]azepine-2-carboxamide, 10-[[[(3S)-1-acetyl-3-pyrrolidinyl]carbonyl]amino]-N-[(4-fluoro-3-methylphenyl)methyl]-4,6,7,8,9,10-hexahydro-3-hydroxy-4-oxo-], the IC50 is less than 0.01 µM.
